Tested on: naproxen-induced gastric ulcer
Assay: naproxen-induced gastric ulcer in rats (ulcer index 5 hours after oral dosing)
Type: in vivo, Male Crl: CD (SD) rats
Conditions: for Ulcer Index (Mean ± S.E.): rats; for % Inhibition of ulcer index: vs vehicle + naproxen group
Procedure: Male Crl: […] The animal was euthanized by cervical dislocation 5 hours after administration of the dosing preparation, and the stomach was removed. The stomach was filled with 10 mL of saline and fixed in 1% formalin. Then the stomach was opened along the greater curvature and gently washed with saline. The length of the major axis of each gastric ulcer was measured with digital slide gauges, and the total length of the major axes of all gastric ulcers (ulcer index) was obtained.

**Q.** For `CC[C@H](C)CC(F)(F)C(=O)CC[C@H]1[C@H](O)CC(=O)[C@@H]1CCCCCCC(=O)O` [Compound A, 13,14-dihydro-15-keto-16,16-difluoro-18(S)-methyl-PGE1], which “Ulcer Index (Mean ± S.E.)” value (Compound A 1 μg/kg + naproxen 200 mg/kg oral, 5 hours) is on record?
**A.** 63.47 ± 10.87

**Q.** What about the “% Inhibition of ulcer index” value (Compound A 1 μg/kg + naproxen 200 mg/kg) of the same molecule?
**A.** 22%

**Q.** And the “Ulcer Index (Mean ± S.E.)” value (Compound A 10 μg/kg + naproxen 200 mg/kg oral, 5 hours, p<0.05 vs vehicle + naproxen)?
**A.** 12.15 ± 3.45

**Q.** What about the “% Inhibition of ulcer index” value (Compound A 10 μg/kg + naproxen 200 mg/kg) of the same molecule?
**A.** 85%

**Q.** What about the “reduction of ulcer formation, significance (in words)” value (Compound A 10 μg/kg and 100 μg/kg + naproxen 200 mg/kg groups compared to vehicle + naproxen group) of the same molecule?
**A.** Significant reductions of ulcer formation

**Q.** What about the “Ulcer Index (Mean ± S.E.)” value (Compound A 100 μg/kg + naproxen 200 mg/kg oral, 5 hours, p<0.01 vs vehicle + naproxen) of the same molecule?
**A.** 0.50 ± 0.40

**Q.** And the “% Inhibition of ulcer index” value (Compound A 100 μg/kg + naproxen 200 mg/kg)?
**A.** 99.4%

**Q.** And the “ulcer formation induced by naproxen (in words)” value (Compound A at 1, 10 and 100 μg/kg with naproxen 200 mg/kg, dose-dependent)?
**A.** reduced

**Q.** And the “protective effect against ulcer formation in combination with NSAID (in words)” value (overall conclusion of Example 1)?
**A.** potent protective effect against ulcer formation

**Q.** With `COc1ccc2cc([C@H](C)C(=O)O)ccc2c1` [naproxen, reference compound] as the molecule, how does the “Ulcer Index (Mean ± S.E.)” value (Vehicle (0.01% Tween 80) + naproxen 200 mg/kg oral, 5 hours after administration, n=10) read?
**A.** 81.48 ± 15.05

**Q.** How did the “Ulcer Index (Mean ± S.E.)” value (Lansoprazole 1000 μg/kg + naproxen 200 mg/kg oral, 5 hours) turn out when `Cc1c(OCC(F)(F)F)ccnc1C[S+]([O-])c1nc2ccccc2[nH]1` (stereo not shown) [Lansoprazole, lansoprazole, reference compound] was run?
**A.** 68.09 ± 7.61

**Q.** What about the “% Inhibition of ulcer index” value (Lansoprazole 1000 μg/kg + naproxen 200 mg/kg) of the same molecule?
**A.** 16%

**Q.** And the “effect on naproxen-induced gastric ulcers (in words)” value (lansoprazole 1000 μg/kg with naproxen)?
**A.** did not have a significant effect
